Eleven compounds from patent publication US5852210A, “Cinnamic acid derivatives” (G. D. Searle & Co., priority 1997, dated 1998) can be followed below.

Structures can show the parent of a compound that is named as a salt.

For experiment [1], the target named is T1, Human vitronectin receptor (αv β3) (Homo sapiens, UniProt P05106+P06756).
T1 construct: Human vitronectin receptor (αv β3) was purified from human placenta; from tissue; host or cells: human placenta
Put plainly: Vitronectin adhesion assay (solid phase receptor assay, αvβ3). It is filed as binding. Particulars: inhibition of binding of biotinylated human vitronectin (1 nM) to purified receptor; Table I; read-out: AvB3 IC50. As for the experimental part: (§1) The activity of the compounds of the present invention was tested in the following assays.
Human vitronectin receptor (αv β3) was purified from human placenta as previously described [Pytela et al., Methods in Enzymology, 144:475-489 (1987)]. Human vitronectin was purified from fresh frozen plasma as previously described [Yatohgo et al., Cell Structure and Function, 13:281-292 (1988)]. Biotinylated human vitronectin was prepared by coupling NHS-biotin from Pierce Chemical Company (Rockford, Ill.) to purified vitronectin as previously described [Charo et al., J. Biol. Chem., 266(3):1415-1421 (1991)]. Assay buffer, OPD substrate tablets, and RIA grade BSA were obtained from Sigma (St. Louis, Mo.). Anti-biotin antibody was obtained from Calbiochem (La Jolla, Calif.). Linbro microtiter plates were obtained from Flow Labs (McLean, Va.). ADP reagent was obtained from Sigma (St. Louis, Mo.).
(§2) Solid Phase Receptor Assays
This assay was essentially the same as previously reported [Niiya et al., Blood, 70:475-483 (1987)]. The purified human vitronectin receptor (αv β3) was diluted from stock solutions to […] in Tris-buffered saline containing 1.0 mM Ca^++, Mg^++, and Mn^++, pH 7.4 (TBS^+++). The diluted receptor was immediately transferred to Linbro microtiter plates at 100 μL/well (100 ng receptor/well). The plates were sealed and incubated overnight at 4° C. to allow the receptor to bind to the wells. All remaining steps were at room temperature. The assay plates were emptied and 200 μL, of 1% RIA grade BSA in TBS^+++ (TBS^+++ /BSA) were added to block exposed plastic surfaces. Following a 2 hour incubation, the assay plates were washed with TBS^+++ using a 96 well plate washer. Logarithmic serial dilution of the test compound and controls were made starting at a stock concentration of 2 mM and using 2 nM biotinylated vitronectin in TBS^+++ /BSA as the diluent. This premixing of labeled ligand with test (or control) ligand, and subsequent transfer of 50 μL aliquots to the assay plate was carried out with a CETUS Propette robot; the final concentration of the labeled ligand was 1 nM and the highest concentration of test compound was 1.0×10^-4 M. The competition occurred for two hours after which all wells were washed with a plate washer as before. Affinity purified horseradish peroxidase labeled goat anti-biotin antibody was diluted 1:3000 in TBS^+++ /BSA and 125 μL were added to each well. After 30 minutes, the plates were washed and incubated with OPD/H2 O2 substrate in 100 mM/L Citrate buffer, pH 5.0. The plate was read with a microtiter plate reader at a wavelength of 450 nm and when the maximum-binding control wells reached an absorbance of about 1.0, the final A450 were recorded for analysis. The data were analyzed using a macro written for use with the EXCEL™ spreadsheet program. The mean, standard deviation, and % CV were determined for duplicate concentrations. The mean A450 values were normalized to the mean of four maximum-binding controls (no competitor added) (B-MAX). The normalized values were subjected to a four parameter curve fit algorithm [Rodbard et al., Int.

In experiment [2] the target is T2, Human fibrinogen receptor (αIIb β3) (Homo sapiens, UniProt P05106+P08514).
T2 construct: Human fibrinogen receptor (αIIb β3) was purified from outdated platelets; from tissue; host or cells: human outdated platelets
T2 sequence (P08514 32-887 limits assumed): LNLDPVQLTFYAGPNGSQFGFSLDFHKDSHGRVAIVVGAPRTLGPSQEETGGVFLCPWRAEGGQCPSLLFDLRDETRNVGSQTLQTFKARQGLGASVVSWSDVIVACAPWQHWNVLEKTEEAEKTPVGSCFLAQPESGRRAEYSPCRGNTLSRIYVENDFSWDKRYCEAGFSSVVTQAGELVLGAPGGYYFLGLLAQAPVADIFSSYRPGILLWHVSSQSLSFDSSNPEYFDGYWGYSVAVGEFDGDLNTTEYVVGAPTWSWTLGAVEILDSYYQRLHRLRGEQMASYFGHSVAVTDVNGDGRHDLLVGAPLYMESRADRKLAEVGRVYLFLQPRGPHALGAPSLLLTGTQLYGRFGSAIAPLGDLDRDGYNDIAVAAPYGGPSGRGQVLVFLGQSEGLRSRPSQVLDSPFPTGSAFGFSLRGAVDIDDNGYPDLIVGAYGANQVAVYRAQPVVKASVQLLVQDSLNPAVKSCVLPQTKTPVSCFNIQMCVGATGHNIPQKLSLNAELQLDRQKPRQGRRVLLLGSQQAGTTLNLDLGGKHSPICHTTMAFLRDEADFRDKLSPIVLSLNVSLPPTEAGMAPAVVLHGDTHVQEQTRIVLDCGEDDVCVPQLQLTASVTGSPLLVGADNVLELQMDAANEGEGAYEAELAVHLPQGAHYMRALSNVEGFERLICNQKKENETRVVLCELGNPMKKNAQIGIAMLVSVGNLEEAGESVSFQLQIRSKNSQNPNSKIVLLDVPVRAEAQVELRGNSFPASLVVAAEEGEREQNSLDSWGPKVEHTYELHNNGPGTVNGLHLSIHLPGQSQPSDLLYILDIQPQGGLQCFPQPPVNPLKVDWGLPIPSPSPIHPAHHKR
T2 sequence (P08514 891-1039 limits assumed): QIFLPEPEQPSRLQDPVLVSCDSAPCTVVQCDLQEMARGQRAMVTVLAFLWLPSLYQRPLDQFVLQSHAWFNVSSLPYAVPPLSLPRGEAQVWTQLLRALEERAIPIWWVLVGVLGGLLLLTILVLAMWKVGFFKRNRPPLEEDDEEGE
T2 sequence (P05106 27-788): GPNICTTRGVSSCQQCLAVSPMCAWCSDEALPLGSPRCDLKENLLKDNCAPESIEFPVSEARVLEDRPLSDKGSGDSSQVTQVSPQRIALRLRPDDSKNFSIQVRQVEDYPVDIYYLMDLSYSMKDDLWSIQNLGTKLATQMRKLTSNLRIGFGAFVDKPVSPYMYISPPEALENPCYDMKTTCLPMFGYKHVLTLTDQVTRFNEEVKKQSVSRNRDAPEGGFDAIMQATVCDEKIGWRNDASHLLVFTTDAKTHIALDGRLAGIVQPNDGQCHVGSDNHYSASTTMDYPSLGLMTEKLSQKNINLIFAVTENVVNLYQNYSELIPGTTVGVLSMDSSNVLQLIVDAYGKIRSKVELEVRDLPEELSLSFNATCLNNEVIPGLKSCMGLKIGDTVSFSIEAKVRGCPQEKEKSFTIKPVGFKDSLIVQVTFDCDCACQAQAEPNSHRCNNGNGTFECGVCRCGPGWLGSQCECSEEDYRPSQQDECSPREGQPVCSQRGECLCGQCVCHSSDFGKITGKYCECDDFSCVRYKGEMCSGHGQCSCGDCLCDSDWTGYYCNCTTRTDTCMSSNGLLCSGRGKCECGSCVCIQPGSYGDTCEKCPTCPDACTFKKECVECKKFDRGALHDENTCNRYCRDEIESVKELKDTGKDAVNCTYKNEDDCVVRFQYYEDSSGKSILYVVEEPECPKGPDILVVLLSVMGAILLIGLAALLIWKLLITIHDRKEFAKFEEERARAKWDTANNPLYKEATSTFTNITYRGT
The experiment is described as follows: Purified IIb/IIIa receptor assay (solid phase receptor assay). Particulars: inhibition of binding of biotinylated human vitronectin (1 nM) to purified receptor; Table I. As for the experimental part:
as §1
Human fibrinogen receptor (αIIb β3) was purified from outdated platelets. (Pytela, R., Pierschbacher, M. D., Argraves, S., Suzuki, S., and Rouslahti, E. "Arginine-Glycine-Aspartic acid adhesion receptors", Methods in Enzymology 144(1987):475-489.) Human vitronectin was purified from fresh frozen plasma as described in Yatohgo, T., Izumi, M., Kashiwagi, H., and Hayashi, M., "Novel purification of vitronectin from human plasma by heparin affinity chromatography," Cell Structure and Function 13(1988):281-292. Biotinylated human vitronectin was prepared by coupling NHS-biotin from Pierce Chemical Company (Rockford, Ill.) to purified vitronectin as previously described. (Charo, I. F., Nannizzi, L., Phillips, D. R., Hsu, M. A., Scarborough, R. M., "Inhibition of fibrinogen binding to GP IIb/IIIa by a GP IIIa peptide", J. Biol. Chem. 266(3) (1991): 1415-1421.) Assay buffer, OPD substrate tablets, and RIA grade BSA were obtained from Sigma (St. Louis, Mo.). Anti-biotin antibody was obtained from Calbiochem (La Jolla, Calif.). Linbro microtiter plates were obtained from Flow Labs (McLean, Va.). ADP reagent was obtained from Sigma (St. Louis, Mo.).
as §2
This assay is essentially the same reported in Niiya, K., Hodson, E., Bader, R., Byers-Ward, V. Koziol, J. A., Plow, E. F. and Ruggeri, Z. M., "Increased surface expression of the membrane glycoprotein IIb/IIIa complex induced by platelet activation: Relationships to the binding of fibrinogen and platelet aggregation", Blood 70 (1987):475-483. The purified human fibrinogen receptor (αIIb β3) was diluted from stock solutions to 1.0 μg/mL in Tris-buffered saline containing 1.0 mM Ca^++, Mg^++, and Mn^++, pH 7.4 (TBS^+++). The diluted receptor was immediately transferred to Linbro microtiter plates at 100 μL/well (100 ng receptor/well). The plates were sealed and incubated overnight at 4° C. to allow the receptor to bind to the wells. All remaining steps were at room temperature. The assay plates were emptied and 200 μL of 1% RIA grade BSA in TBS^+++ (TBS^+++ /BSA) were added to block exposed plastic surfaces. Following a 2 hour incubation, the assay plates were washed with TBS^+++ using a 96 well plate washer. Logarithmic serial dilution of the test compound and controls were made starting at a stock concentration of 2 mM and using 2 nM biotinylated vitronectin in TBS^+++ /BSA as the diluent. This premixing of labeled ligand with test (or control) ligand, and subsequent transfer of 50 μL aliquots to the assay plate was carried out with a CETUS Propette robot; the final concentration of the labeled ligand was 1 nM and the highest concentration of test compound was 1.0×10^-4 M. The competition occurred for two hours after which all wells were washed with a plate washer as before. Affinity purified horseradish peroxidase labeled goat anti-biotin antibody was diluted 1:3000 in TBS^+++ /BSA and 125 μL were added to each well. After 30 minutes, the plates were washed and incubated with […]/H2 O2 substrate in 100 mM/L citrate buffer, pH 5.0. The plate was read with a microtiter plate reader at a wavelength of 450 nm and when the maximum-binding control wells reached an absorbance of about 1.0, the final A450 were recorded for analysis. The data were analyzed using a macro written for use with the EXCEL™ spreadsheet program. The mean, standard deviation, and % CV were determined for duplicate concentrations. The mean A450 values were normalized to the mean of four maximum-binding controls (no competitor added) (B-MAX). The normalized values were subjected to a four parameter curve fit algorithm, [Robard et al., Int.

T1 sequence (P06756 31-889 limits assumed): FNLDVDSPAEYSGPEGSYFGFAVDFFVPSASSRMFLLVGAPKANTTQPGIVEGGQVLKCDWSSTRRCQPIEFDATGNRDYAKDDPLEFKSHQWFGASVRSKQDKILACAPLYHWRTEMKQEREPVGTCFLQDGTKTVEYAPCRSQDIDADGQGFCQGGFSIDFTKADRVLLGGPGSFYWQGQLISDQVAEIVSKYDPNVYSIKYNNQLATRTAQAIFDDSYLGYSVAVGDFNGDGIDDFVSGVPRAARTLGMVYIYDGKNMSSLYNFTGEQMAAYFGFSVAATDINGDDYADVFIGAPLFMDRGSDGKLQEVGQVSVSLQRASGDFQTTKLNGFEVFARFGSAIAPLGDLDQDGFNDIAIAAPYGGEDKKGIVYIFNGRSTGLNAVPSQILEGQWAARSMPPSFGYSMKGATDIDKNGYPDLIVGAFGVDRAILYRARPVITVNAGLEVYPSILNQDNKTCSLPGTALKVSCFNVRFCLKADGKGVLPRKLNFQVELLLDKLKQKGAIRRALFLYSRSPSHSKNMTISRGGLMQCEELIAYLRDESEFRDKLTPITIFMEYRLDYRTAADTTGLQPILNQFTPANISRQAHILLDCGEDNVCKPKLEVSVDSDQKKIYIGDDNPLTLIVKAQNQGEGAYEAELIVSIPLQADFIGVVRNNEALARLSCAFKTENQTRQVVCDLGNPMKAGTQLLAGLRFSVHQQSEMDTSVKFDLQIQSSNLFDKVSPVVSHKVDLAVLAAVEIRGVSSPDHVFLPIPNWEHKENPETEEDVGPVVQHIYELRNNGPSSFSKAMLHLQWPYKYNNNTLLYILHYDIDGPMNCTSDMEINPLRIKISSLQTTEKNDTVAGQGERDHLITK
T1 sequence (P06756 891-1048 limits assumed): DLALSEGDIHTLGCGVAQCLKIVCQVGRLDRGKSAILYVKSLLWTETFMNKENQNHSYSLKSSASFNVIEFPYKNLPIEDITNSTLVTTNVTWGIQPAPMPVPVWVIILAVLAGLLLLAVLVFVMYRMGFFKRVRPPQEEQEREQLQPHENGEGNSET
T1 sequence (P05106 27-788): as the sequence (P05106 27-788) above

What is called IC50 is the concentration that gives 50% inhibition. Take `O=C(O)/C=C/c1ccc(NC(=O)c2cccc(NC3=NCCCN3)c2)cc1C(=O)O` [Example 40A, 2-(2-carboxyethenyl)-5-[[[3-[(1,4,5,6-tetrahydropyrimidin-2-yl)amino]phenyl]carbonyl]amino]benzoic acid, trifluoroacetate salt]: the figures for the IC50 in experiment [1] and in experiment [2] were 0.45 nM and 97.2 nM, respectively.
Regarding `COC(=O)c1cc(NC(=O)c2cccc(NC3=NCCCN3)c2)ccc1/C=C/C(=O)O` [Example 40B, methyl 2-(2-carboxyethenyl)-5-[[[3-[(1,4,5,6-tetrahydropyrimidin-2-yl)amino]phenyl]carbonyl]amino]benzoate, trifluoroacetate salt], the results for the 50% inhibitory concentration (IC50) in experiment [1] and in experiment [2] were 5.71 nM and 817 nM, respectively.
Regarding `COC(=O)/C=C/c1ccc(NC(=O)c2cccc(NC3=NCCCN3)c2)cc1C(=O)O` [Example 40C, 2-[2-(methoxycarbonyl)ethenyl]-5-[[[3-[(1,4,5,6-tetrahydropyrimidin-2-yl)amino]phenyl]carbonyl]amino]benzoic acid, trifluoroacetate salt], the concentration for half-maximal inhibition (IC50) in experiment [1] is 176 nM; in experiment [2] it was 20400 nM.
The corresponding values for `N=C(N)Nc1cccc(C(=O)Nc2ccc(/C=C/C(=O)O)c(/C=C/C(=O)O)c2)c1` [Example 42, 3-[4-[[[3-[(aminoiminomethyl)amino]phenyl]carbonyl]amino]-2-(2-carboxyethenyl)phenyl]propenoic acid, trifluoroacetate salt] are 7.6 nM and 15.9 nM.
Regarding `N#Cc1cc(NC(=O)c2cccc(NC(=N)N)c2)ccc1/C=C/C(=O)O` [Example 44, 3-[4-[[[3-[(aminoiminomethyl)amino]phenyl]carbonyl]amino]-2-cyanophenyl]propenoic acid, trifluoroacetate salt], the values for the IC50 in experiment [1] and in experiment [2] were 30.2 nM and 36.2 nM, respectively.
For `CNC(=O)c1cc(NC(=O)c2cccc(NC3=NCCCN3)c2)ccc1/C=C/C(=O)O` [Example 45, 3-[2-[(methylamino)carbonyl]-4-[[[3-[(1,4,5,6-tetrahydropyrimidin-2-yl)amino]phenyl]carbonyl]amino]phenyl]propenoic acid, bis(trifluoroacetate) salt], in that order: 6.7 nM and 759 nM.
Regarding `CCOC(=O)Nc1cc(NC(=O)c2cccc(NC3=NCCCN3)c2)ccc1/C=C/C(=O)O` [Example 46, 3-[2-[(ethoxycarbonyl)amino]-4-[[[3-[(1,4,5,6-tetrahydropyrimidin-2-yl)amino]phenyl]carbonyl]amino]phenyl]propenoic acid, trifluoroacetate salt], the IC50 was 7.19 nM in experiment [1] and 2600 nM in experiment [2].
For `O=C(O)/C=C/c1ccc(NC(=O)c2cccc(NC3=NCCCN3)c2)cc1` [Example 49, 3-[4-[[[3-[(1,4,5,6-tetrahydropyrimidin-2-yl)amino]phenyl]carbonyl]amino]phenyl]propenoic acid, trifluoroacetate salt], in that order: 2.18 nM and 661 nM.
For `COc1cc(NC(=O)c2cccc(NC3=NCCCN3)c2)ccc1/C=C/C(=O)O` [Example 50, 3-[2-methoxy-4-[[[3-[(1,4,5,6-tetrahydropyrimidin-2-yl)amino]phenyl]carbonyl]amino]phenyl]propenoic acid, trifluoroacetate salt], in that order: 0.43 nM and 772 nM.
The corresponding values for `NC(=O)N=C(N)Nc1cccc(C(=O)Nc2ccc(/C=C/C(=O)O)cc2)c1` [Example 52, 3-[4-[[[3-[[amino[(aminocarbonyl)imino)methyl]amino]phenyl]carbonyl]amino]phenyl]propenoic acid, trifluoroacetate salt] are 72.5 nM and 133 nM.
On to `N=C(N)Nc1cc(C(=O)Nc2ccc(/C=C/C(=O)O)cc2)cc(C(F)(F)F)c1` [Example 53, 3-[4-[[[3-[(aminoiminomethyl)amino]-5-(trifluoromethyl)-phenyl]carbonyl]amino]phenyl]propenoic acid, trifluoroacetate salt], for which the results for the IC50 in experiment [1] and in experiment [2] were 7.89 nM and 232 nM, respectively.
